Assay results from patent US9365522B2, “Pyrazole amide derivative” (AMGEN INC., priority 2015, dated 2016).

Target: T1, human RORγ-LBD (Homo sapiens, UniProt P51449)
T1 construct: made in house; host or cells: E. coli (BL-21)
T1 sequence (P51449 262-518): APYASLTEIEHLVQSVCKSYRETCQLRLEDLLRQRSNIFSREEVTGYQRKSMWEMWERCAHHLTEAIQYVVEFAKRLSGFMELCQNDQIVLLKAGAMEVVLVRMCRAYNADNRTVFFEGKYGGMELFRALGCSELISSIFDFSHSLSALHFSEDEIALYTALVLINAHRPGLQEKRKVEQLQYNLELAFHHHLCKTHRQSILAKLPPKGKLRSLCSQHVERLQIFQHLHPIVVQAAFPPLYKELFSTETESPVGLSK
Assay: ROR gamma coactivator peptide recruitment Alphascreen assay (RORγ-LBD binding to GRIP1 coactivator peptide)
Format: biochemical
Conditions: 5 nM human RORγ-LBD, 30 nM 7-β-hydroxycholesterol, 50 nM biotinylated GRIP1 coactivator peptide, overnight incubation at room temperature; read-out: result (pIC50, RORγ coactivator peptide recruitment Alphascreen assay) (converted)
In short: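 Alphascreen proximity read-out after overnight room-temperature incubation, yielding pIC50 from 1-in-2 compound series (2.5% DMSO final). Mixture: 50 nM biotin-GRIP1 peptide, 30 nM 7-β-hydroxycholesterol agonist, 5 nM recombinant 6×His:Flag human RORγ-LBD (aa 262-518), 50 mM HEPES pH 7.4.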

| IC50 [nM] | Compound |
| --- | --- |
| 4.27 | COc1cc(Cl)c(C(=O)CN(C(=O)c2cnn([C@H]3CC[C@](C)(C(=O)O)CC3)c2C(F)(F)F)C2CCC(C)(C)CC2)c(Cl)c1 [Example 579, trans-4-(4-((2-(2,6-dichloro-4-methoxyphenyl)-2-oxoethyl)(4,4-dimethylcyclohexyl)carbamoyl)-5-(trifluoromethyl)-1H-pyrazol-1-yl)-1-methylcyclohexanecarboxylic acid] |
| 5.01 | COc1cc(Cl)c(C(=O)CN(CC2CC(C)(C)C2)C(=O)c2cnn([C@H]3CC[C@H](C(=O)O)CC3)c2C(F)(F)F)c(Cl)c1 [Example 580, trans-4-(4-((2-(2,6-dichloro-4-methoxyphenyl)-2-oxoethyl)((3,3-dimethylcyclobutyl)methyl)carbamoyl)-5-(trifluoromethyl)-1H-pyrazol-1-yl)cyclohexanecarboxylic acid] |
| 3.47 | COc1cc(Cl)c(C(=O)CN(CC2CC(C)(C)C2)C(=O)c2cnn([C@H]3CC[C@](C)(C(=O)O)CC3)c2C(F)(F)F)c(Cl)c1 [Example 581] |
| 22.9 | C[C@]1(C(=O)O)CC[C@H](n2ncc(C(=O)N3CC4(CCCC4)C[C@@H]3Cc3c(Cl)cncc3Cl)c2C(F)(F)F)CC1 [Example 582, trans-4-(4-(((3R)-3-((3,5-dichloro-4-pyridinyl)methyl)-2-azaspiro[4.4]non-2-yl)carbonyl)-5-(trifluoromethyl)-1H-pyrazol-1-yl)-1-methylcyclohexanecarboxylic acid] |
| 2.4 | Cc1cc(Cl)c(C(=O)CN(CC2CC3(CC3)C2)C(=O)c2cnn([C@H]3CC[C@](C)(C(=O)O)CC3)c2C(F)(F)F)c(Cl)c1 [Example 583, trans-4-(4-((2-(2,6-dichloro-4-methylphenyl)-2-oxoethyl)(spiro[2.3]hex-5-ylmethyl)carbamoyl)-5-(trifluoromethyl)-1H-pyrazol-1-yl)-1-methylcyclohexanecarboxylic acid] |
| 5.75 | COc1cc(Cl)c(C(=O)CN(CC2(F)CCCC2)C(=O)c2cnn([C@H]3CC[C@](C)(C(=O)O)CC3)c2C(F)(F)F)c(Cl)c1 [Example 584, trans-4-(4-((2-(2,6-dichloro-4-methoxyphenyl)-2-oxoethyl)((1-fluorocyclopentyl)methyl)carbamoyl)-5-(trifluoromethyl)-1H-pyrazol-1-yl)-1-methylcyclohexanecarboxylic acid] |
| 69.2 | CC1(C)CC(CN(CC(=O)c2ccccc2Br)C(=O)c2cnn([C@H]3CC[C@@H](C(=O)O)CC3)c2C(F)(F)F)C1 [Example 585, cis-4-(4-((2-(2-bromophenyl)-2-oxoethyl)((3,3-dimethylcyclobutyl)methyl)carbamoyl)-5-(trifluoromethyl)-1H-pyrazol-1-yl)cyclohexanecarboxylic acid] |

Further lines, the compound ahead of its results:

| Compound | IC50 [nM] |
| --- | --- |
| CC1(CN(CCc2c(Cl)cncc2Cl)C(=O)c2cnn([C@H]3CC[C@](C)(C(=O)O)CC3)c2C(F)(F)F)CCC1 [Example 562, trans-4-(4-((2-(3,5-dichloro-4-pyridinyl)ethyl)((1-methylcyclobutyl)methyl)carbamoyl)-5-(trifluoromethyl)-1H-pyrazol-1-yl)-1-methylcyclohexanecarboxylic acid] | 3.72 |
| CC1(CN(CCc2c(Cl)cncc2Cl)C(=O)c2cnn([C@H]3CC[C@@H](C(=O)O)CC3)c2C(F)(F)F)CC1 [Example 563, cis-4-(4-((2-(3,5-dichloro-4-pyridinyl)ethyl)((1-methylcyclopropyl)methyl)carbamoyl)-5-(trifluoromethyl)-1H-pyrazol-1-yl)cyclohexanecarboxylic acid] | 204 |
| CC1(CN(CCc2c(Cl)cncc2Cl)C(=O)c2cnn([C@H]3CC[C@](C)(C(=O)O)CC3)c2C(F)(F)F)CC1 [Example 564, trans-4-(4-((2-(3,5-dichloro-4-pyridinyl)ethyl)((1-methylcyclopropyl)methyl)carbamoyl)-5-(trifluoromethyl)-1H-pyrazol-1-yl)-1-methylcyclohexanecarboxylic acid] | 4.17 |
| Cc1cc(Cl)c(C(=O)CN(CC2CC3(CC3)C2)C(=O)c2cnn([C@H]3CC[C@@H](C(=O)O)CC3)c2C(F)(F)F)c(Cl)c1 [Example 565, cis-4-(4-((2-(2,6-dichloro-4-methylphenyl)-2-oxoethyl)(spiro[2.3]hex-5-ylmethyl)carbamoyl)-5-(trifluoromethyl)-1H-pyrazol-1-yl)cyclohexanecarboxylic acid] | 18.2 |
| C[C@]1(C(=O)O)CC[C@H](n2ncc(C(=O)N(CC(=O)c3c(Cl)cccc3Cl)CC3CC4(CC4)C3)c2C(F)(F)F)CC1 [Example 566, trans-4-(4-((2-(2,6-dichlorophenyl)-2-oxoethyl)(spiro[2.3]hex-5-ylmethyl)carbamoyl)-5-(trifluoromethyl)-1H-pyrazol-1-yl)-1-methylcyclohexanecarboxylic acid] | 3.09 |
| O=C(CN(CC1CC2(CC2)C1)C(=O)c1cnn([C@H]2CC[C@H](C(=O)O)CC2)c1C(F)(F)F)c1c(Cl)cccc1Cl [Example 567, trans-4-(4-((2-(2,6-dichlorophenyl)-2-oxoethyl)(spiro[2.3]hex-5-ylmethyl)carbamoyl)-5-(trifluoromethyl)-1H-pyrazol-1-yl)cyclohexanecarboxylic acid] | 2.4 |
| Cc1cc(Cl)c(C(=O)CN(CC(C)(C)C)C(=O)c2cnn([C@H]3CC[C@](C)(C(=O)O)CC3)c2C(F)(F)F)c(Cl)c1 [Example 568, trans-4-(4-((2-(2,6-dichloro-4-methylphenyl)-2-oxoethyl)(2,2-dimethylpropyl)carbamoyl)-5-(trifluoromethyl)-1H-pyrazol-1-yl)-1-methylcyclohexanecarboxylic acid] | 3.39 |
| C[C@]1(C(=O)O)CC[C@H](n2ncc(C(=O)N(CC(=O)c3c(Cl)cccc3Cl)CC3CCC4(CC3)CC4)c2C(F)(F)F)CC1 [Example 569, trans-4-(4-((2-(2,6-dichlorophenyl)-2-oxoethyl)(spiro[25]oct-6-ylmethyl)carbamoyl)-5-(trifluoromethyl)-1H-pyrazol-1-yl)-1-methylcyclohexanecarboxylic acid] | 6760 |
| C[C@@H]1C[C@H](n2ncc(C(=O)N(CC(=O)c3c(Cl)cccc3Cl)CC3CC(C)(C)C3)c2C(F)(F)F)CC[C@@H]1C(=O)O [Example 570, (1S,2R,4R)-4-(4-((2-(2,6-dichlorophenyl)-2-oxoethyl)((3,3-dimethylcyclobutyl)methyl)carbamoyl)-5-(trifluoromethyl)-1H-pyrazol-1-yl)-2-methylcyclohexanecarboxylic acid] | 18.6 |
| Cc1cc(Cl)c(C(=O)CN(CC2(C)CCCCC2)C(=O)c2cnn([C@H]3CC[C@](C)(C(=O)O)CC3)c2C(F)(F)F)c(Cl)c1 [Example 571, trans-4-(4-((2-(2,6-dichloro-4-methylphenyl)-2-oxoethyl)((1-methylcyclohexyl)methyl)carbamoyl)-5-(trifluoromethyl)-1H-pyrazol-1-yl)-1-methylcyclohexanecarboxylic acid] | 1.26 |
| CC(C)(C)CN(C[C@H](O)c1c(Cl)cccc1Cl)C(=O)c1cnn([C@H]2CC[C@H](C(=O)O)CC2)c1C(F)(F)F [Example 573, trans-4-(4-(((2R)-2-(2,6-dichlorophenyl)-2-hydroxyethyl)(2,2-dimethylpropyl)carbamoyl)-5-(trifluoromethyl)-1H-pyrazol-1-yl)cyclohexanecarboxylic acid] | 79.4 |
| CC(C)(C)CN(C[C@@H](O)c1c(Cl)cccc1Cl)C(=O)c1cnn([C@H]2CC[C@H](C(=O)O)CC2)c1C(F)(F)F [Example 574, trans-4-(4-(((2S)-2-(2,6-dichlorophenyl)-2-hydroxyethyl)(2,2-dimethylpropyl)carbamoyl)-5-(trifluoromethyl)-1H-pyrazol-1-yl)cyclohexanecarboxylic acid] | 2570 |
| COc1cc(Cl)c(C(=O)CN(C(=O)c2cnn([C@H]3CC[C@H](C(=O)O)CC3)c2C(F)(F)F)C2CCC(C)(C)CC2)c(Cl)c1 [Example 575, trans-4-(4-((2-(2,6-dichloro-4-methoxyphenyl)-2-oxoethyl)(4,4-dimethylcyclohexyl)carbamoyl)-5-(trifluoromethyl)-1H-pyrazol-1-yl)cyclohexanecarboxylic acid] | 17 |
| C[C@]1(C(=O)O)CC[C@H](n2ncc(C(=O)N3CC4(CC=CC4)C[C@@H]3Cc3c(Cl)cncc3Cl)c2C(F)(F)F)CC1 [Example 576, trans-4-(4-(((3R)-3-((3,5-dichloro-4-pyridinyl)methyl)-2-azaspiro[4.4]non-7-en-2-yl)carbonyl)-5-(trifluoromethyl)-1H-pyrazol-1-yl)-1-methylcyclohexanecarboxylic acid] | 34.7 |
| CC1(CN(CC(=O)c2c(Cl)cncc2Cl)C(=O)c2cnn([C@H]3CC[C@](C)(C(=O)O)CC3)c2C(F)(F)F)CC1 [Example 577, trans-4-(4-((2-(3,5-dichloro-4-pyridinyl)-2-oxoethyl)((1-methylcyclopropyl)methyl)carbamoyl)-5-(trifluoromethyl)-1H-pyrazol-1-yl)-1-methylcyclohexanecarboxylic acid] | 11.7 |
| CC1(C)CC[C@@H]1N(CC(=O)c1c(Cl)cncc1Cl)C(=O)c1cnn([C@H]2CC[C@](C)(C(=O)O)CC2)c1C(F)(F)F [Example 578, trans-4-(4-((2-(3,5-dichloro-4-pyridinyl)-2-oxoethyl)((1S)-2,2-dimethylcyclobutyl)carbamoyl)-5-(trifluoromethyl)-1H-pyrazol-1-yl)-1-methylcyclohexanecarboxylic acid] | 100 |
